Data taken from publication PMC6508583 (Journal of the American Chemical Society, 2019).
Converted amounts (≈) assume the structure as drawn. Where two headings read alike, the source gives them in different places.

Assays:
[1] = system: wild-type bacterial ribosome; assay: Cell-free translation assay, wild-type bacterial ribosome; assay type: biochemical; settings: in vitro translation inhibition
[2] = system: Mit13 hybrid ribosome (decoding A site of the human mitochondrial ribosome); assay type: biochemical; settings: for Selectivity Mit 13: Mit13 over wt bacterial ribosome; for IC50 Mit13: in vitro translation inhibition, Mit13 hybrid ribosome
[3] = system: A1555G mutant mitochondrial hybrid ribosome; assay type: biochemical, human; settings: for Selectivity A1555G: A1555G over wt bacterial ribosome; for IC50 A1555G: in vitro translation inhibition, A1555G mutant mitochondrial hybrid ribosome
[4] = system: Cyt14 hybrid ribosome (decoding A site of the human cytoplasmic ribosome); assay type: biochemical; settings: for Selectivity Cyt14: Cyt14 over wt bacterial ribosome; for IC50 Cyt 14: in vitro translation inhibition, Cyt14 hybrid ribosome
MRSA = assay: Antibacterial activity against reference strains: MRSA; assay type: cell-based; settings: for Antibacterial activity (MIC) MRSA AG038: strain AG038; for Antibacterial activity (MIC) MRSA AG042: strain AG042 carries the AAC(6)’, ANT(4’,4’’) and APH(3’) genes; for MIC: Staphylococcus aureus, MRSA
K. pneumoniae = assay: Antibacterial activity against reference strains: K. pneumoniae; assay type: cell-based; settings: strain AG215
E. cloacae = assay: Antibacterial activity against reference strains: E. cloacae; assay type: cell-based; settings: for Antibacterial activity (MIC) E. cloacae AG290: strain AG290; for MIC: Enterobacter cloacae, read-out: Antibacterial activity (MIC) E. cloacae AG290
A. baumannii = assay: Antibacterial activity against reference strains: A. baumannii; assay type: cell-based; settings: strain AG225
[5] = system: E coli 70S ribosome (helix 44, A1408); assay: Quantitative dimethyl sulfate footprinting of the 70S ribosome; assay type: binding; settings: read-out: apparent Kd; DMS footprinting, % protection of N1 of A1408, E. coli 70S ribosome
[6] = system: E. coli carrying specific resistance determinants; assay: Activity against wild-type and engineered E. coli carrying specific AMEs or RMTs; assay type: cell-based; settings: for MIC: Escherichia coli
E. coli = assay: Antibacterial activity against reference strains: E. coli; settings: for Antibacterial activity (MIC) E. coli AG001: strain AG001; for Antibacterial activity (MIC) E. coli AG003: strain AG003 carries the AAC(3) gene; for MIC: Escherichia coli
P. aeruginosa = assay: Antibacterial activity against reference strains: P. aeruginosa; settings: for Antibacterial activity (MIC) P. aeruginosa AG031: strain AG031 carries the APH(3’) gene; for Antibacterial activity (MIC) P. aeruginosa AG220: strain AG220 carries the APH(3’) gene
[7] = system: E. coli clinical isolates carrying two or more resistance determinants; assay: Activity against E. coli clinical isolates with multiple resistance determinants; assay type: cell-based; settings: Escherichia coli
[8] = system: E. cloacae clinical isolates carrying two or more resistance determinants; assay type: cell-based; settings: Enterobacter cloacae
[9] = read-out: Antibacterial activity (MIC) MRSA AG038
[10] = read-out: Antibacterial activity (MIC) MRSA AG042
[11] = read-out: Activity (MIC) E. coli AG006
[12] = read-out: Activity (MIC) E. coli AG007
[13] = read-out: Activity (MIC) E. coli AG008
[14] = read-out: Activity (MIC) E. coli AG009
[15] = read-out: Activity (MIC) E. coli AG036
[16] = read-out: Activity (MIC) E. coli AG103
[17] = read-out: Activity (MIC) E. coli AG105
[18] = read-out: Activity (MIC) E. coli AG166
[19] = read-out: Activity (MIC) E. coli isolate 201430298
[20] = read-out: Activity (MIC) E. coli isolate 201441114
[21] = read-out: Activity (MIC) E. coli isolate 2014251408
[22] = read-out: Activity (MIC) E. coli isolate 2014405344
[23] = read-out: Activity (MIC) E. cloacae isolate 201333207
[24] = read-out: Activity (MIC) E. cloacae isolate 201385168
[25] = read-out: Activity (MIC) E. cloacae isolate 201430601
[26] = read-out: Activity (MIC) E. cloacae isolate 201435487
[27] = read-out: Antibacterial activity (MIC) E. coli AG001
[28] = read-out: Antibacterial activity (MIC) E. coli AG003

Row | Compound | IC50 wt [1] [µg/mL] | Selectivity Mit 13 [2] | IC50 Mit13 [2] [µg/mL] | Selectivity A1555G [3] | IC50 A1555G [3] [µg/mL] | Selectivity Cyt14 [4] | IC50 Cyt 14 [4] [µg/mL] | Antibacterial activity (MIC) MRSA AG038 (MRSA) [µg/mL] | Antibacterial activity (MIC) MRSA AG042 (MRSA) [µg/mL] | Antibacterial activity (MIC) K. pneumoniae AG215 (K. pneumoniae) [µg/mL] | Antibacterial activity (MIC) E. cloacae AG290 (E. cloacae) [µg/mL] | Antibacterial activity (MIC) A. baumannii AG225 (A. baumannii) [µg/mL] | Antibacterial activity (MIC) E. coli AG001 (E. coli) [µg/mL] | Antibacterial activity (MIC) E. coli AG003 (E. coli) [µg/mL] | Antibacterial activity (MIC) P. aeruginosa AG031 (P. aeruginosa) [µg/mL] | Antibacterial activity (MIC) P. aeruginosa AG220 (P. aeruginosa) [µg/mL] | MIC (MRSA; [9]) [µg/mL] | MIC (MRSA; [10]) [µg/mL] | MIC (E. cloacae) [µg/mL] | MIC [6, 11] [µg/mL] | also measured
1 | CCOC1C(CO)OC(OC2C(N)CC(N)C(O)C2OC2OC(CO)C(OC3OC(CN)C(O)C(O)C3N)C2O)C(N)C1O (stereo not shown) [Compound 3] | 0.08 (≈ 0.124 µM) | 1075 | 86 (≈ 134 µM) | 1188 | 95 (≈ 148 µM) | 1100 | 88 (≈ 137 µM) | 8 to 16 | 8 to 16 | 8 | 8 | 16 to 32 | 16 | 32 | >64 | >64 |  |  |  |  | Kd [5]: 1030 ± 200 nM; Activity (MIC) E. coli AG006 ([6]; strain AG006, WT): 8 to 16 µg/mL; Activity (MIC) E. coli AG007 ([6]; strain AG007, AAC(3)): 16 to 32 µg/mL; Activity (MIC) E. coli AG008 ([6]; strain AG008, ANT(2’’)): 8 µg/mL; Activity (MIC) E. coli AG009 ([6]; strain AG009, AAC(6’)): 16 µg/mL; Activity (MIC) E. coli AG036 ([6]; strain AG036, ANT(4′,4′′)): 8 to 16 µg/mL; Activity (MIC) E. coli AG103 ([6]; strain AG103, armA): ≥64 µg/mL; Activity (MIC) E. coli AG105 ([6]; strain AG105, AAC(2′)): 8 to 16 µg/mL; Activity (MIC) E. coli AG166 ([6]; strain AG166, APH(3′)): 64 µg/mL
2 | NCC[C@H](O)C(=O)N[C@@H]1C[C@H](N)[C@@H](O[C@H]2O[C@H](CN)[C@@H](O)[C@H](O)[C@H]2O)[C@H](O)[C@H]1O[C@H]1O[C@H](CO)[C@@H](O)[C@H](N)[C@H]1O [Amikacin] | 0.02 (≈ 0.0342 µM) | 600 | 12 (≈ 20.5 µM) | 21 | 0.42 (≈ 0.717 µM) | 4500 | 90 (≈ 154 µM) |  |  |  |  |  |  |  |  |  | 4 (≈ 6.83 µM) | 16 to 32 (≈ 27.3 to 54.6 µM) | 1 (≈ 1.71 µM) | 1 to 2 (≈ 1.71 to 3.42 µM) | MIC [6, 12]: 2 µg/mL (≈ 3.42 µM); MIC [6, 13]: 1 to 2 µg/mL (≈ 1.71 to 3.42 µM); MIC [6, 14]: 32 µg/mL (≈ 54.6 µM); MIC [6, 15]: 4 to 8 µg/mL (≈ 6.83 to 13.7 µM); MIC [6, 16]: > 128 µg/mL; MIC [6, 17]: 2 µg/mL (≈ 3.42 µM); MIC [6, 18]: 2 µg/mL (≈ 3.42 µM); MIC [7, 19]: 8 µg/mL (≈ 13.7 µM); MIC [7, 20]: 64 µg/mL (≈ 109 µM); MIC [7, 21]: 64 µg/mL (≈ 109 µM); MIC [7, 22]: > 256 µg/mL; MIC [8, 23]: 16 µg/mL (≈ 27.3 µM); MIC [8, 24]: > 256 µg/mL; MIC [8, 25]: 8 µg/mL (≈ 13.7 µM); MIC [8, 26]: 4 µg/mL (≈ 6.83 µM); MIC (E. coli; [27]): 2 µg/mL (≈ 3.42 µM); MIC (E. coli; [28]): 2 µg/mL (≈ 3.42 µM)
3 | CNC(C)C1CCC(N)C(OC2C(N)CC(N)C(OC3OCC(C)(O)C(NC)C3O)C2O)O1 (stereo not shown) [Gentamicin] | 0.02 (≈ 0.0419 µM) |  | 9 (≈ 18.8 µM) |  | 0.5 (≈ 1.05 µM) |  | 33 (≈ 69.1 µM) |  |  |  |  |  |  |  |  |  | 0.25 (≈ 0.523 µM) | 64 (≈ 134 µM) | 0.25 (≈ 0.523 µM) | 0.5 (≈ 1.05 µM) | MIC [6, 12]: 32 µg/mL (≈ 67 µM); MIC [6, 13]: 8 to 16 µg/mL (≈ 16.8 to 33.5 µM); MIC [6, 14]: 1 to 2 µg/mL (≈ 2.09 to 4.19 µM); MIC [6, 15]: 0.5 µg/mL (≈ 1.05 µM); MIC [6, 16]: > 128 µg/mL; MIC [6, 17]: 32 µg/mL (≈ 67 µM); MIC [6, 18]: 0.5 µg/mL (≈ 1.05 µM); MIC [7, 19]: 128 µg/mL (≈ 268 µM); MIC [7, 20]: 16 µg/mL (≈ 33.5 µM); MIC [7, 21]: 256 µg/mL (≈ 536 µM); MIC [7, 22]: > 256 µg/mL; MIC [8, 23]: 64 µg/mL (≈ 134 µM); MIC [8, 24]: > 256 µg/mL; MIC [8, 25]: 16 µg/mL (≈ 33.5 µM); MIC [8, 26]: 64 µg/mL (≈ 134 µM); MIC (E. coli; [27]): 1 to 2 µg/mL (≈ 2.09 to 4.19 µM); MIC (E. coli; [28]): 32 to 64 µg/mL (≈ 67 to 134 µM)
4 | NCC1OC(OC2C(CO)OC(OC3C(O)C(N)CC(N)C3OC3OC(CO)C(CC(O)CO)C(O)C3N)C2O)C(N)C(O)C1O (stereo not shown) [Compound 37] | 0.10 (≈ 0.148 µM) | 320 | 32 (≈ 47.5 µM) | 330 | 33 (≈ 49 µM) | 590 | 59 (≈ 87.6 µM) | 4 | 8 | 8 | 4 to 8 | 8 | 16 | 8 | 16 to 32 | 16 |  |  |  |  | 
